Laboratory results published in paper PMC8465942, “Cyano- and Ketone-Containing Selenoesters as Multi-Target Compounds against Resistant Cancers” (Cancers, 2021).
Where two headings read alike, the source gives them in different places. Marks after values point to notes of the source that are not given here.

Key:
[1] = tested on: Colo 205 human colonic adenocarcinoma cell line; experiment: Cytotoxicity (MTT) on sensitive Colo 205 cells; type: cell-based; conditions: for IC50: Homo sapiens, read-out: Colo 205 (IC50 µM) Mean; for SI MRC-5/Colo 205: ratio IC50 non-tumour cells / IC50 cancer cells
Text: (§1) Three cell lines have been used in this study: the doxorubicin-sensitive Colo 205 (CCL-222, ATCC, Manassas, VA, USA) human colonic adenocarcinoma cell line; the multidrug resistant Colo 320/MDR-LRP expressing P-gp (MDR1)-LRP (CCL-220.1, ATCC) human colonic adenocarcinoma cell line; and the MRC-5 human embryonal lung fibroblast cell line (CCL-171, ATCC). The colon adenocarcinoma cell lines were purchased from LGC Promochem (Teddington, UK), and the MRC-5 cell line was purchased from Sigma-Aldrich (Merck KGaA, Darmstadt, Germany). Their culture conditions are as follows: Colo 205 (CCL-222, ATCC) and Colo 320/MDR-LRP expressing P-gp (MDR1)-LRP (CCL-220.1, ATCC) human colon adenocarcinoma cell lines were cultured in RPMI 1640 medium, supplemented with 10% FBS, 2 mM L-glutamine, 1 mM Na-pyruvate, and […]. The cell lines were incubated at 37 °C, 5% CO2, and 95% air atmosphere. The semi-adherent human colon cancer cells were detached with a Trypsin-Versene (EDTA) solution for 5 min at 37 °C. MRC-5 human embryonal lung fibroblast cells were cultured in EMEM containing 4.5 g/L of glucose and supplemented with a non-essential amino acid mixture, a selection of vitamins, and 10% FBS. The cell lines were incubated at 37 °C, 5% CO2, and 95% air atmosphere.
(§2) The effects of increasing concentrations of the compounds on cell growth were tested in 96-well flat-bottomed microtiter plates. Moreover, 10^4 of human colonic adenocarcinoma cells in 100 μL of the medium (RPMI-1640) were added to each well, except for the medium control wells. The adherent human embryonic lung fibroblast cell line was seeded in the EMEM medium for 4 h before the assay. The two-fold serial dilutions of the compounds were made in a separate plate (0.19–100 μM), and then transferred to the plates containing the adherent corresponding cell line. Culture plates were incubated at 37 °C for 24 h. At the end of the incubation period, 20 μL of MTT (thiazolyl blue tetrazolium bromide) solution (from a 5 mg/mL stock solution) were added to each well. After incubation at 37 °C for 4 h, 100 μL of sodium dodecyl sulfate (SDS) solution (10% SDS in 0.01 M HCl) was added to each well, and the plates were further incubated at 37 °C overnight. Cell growth was determined by measuring the optical density (OD) at 540 nm (ref. 630 nm) with a Multiscan EX ELISA reader (Thermo Labsystems, Cheshire, WA, USA). Inhibition of cell growth was expressed as IC50 values, defined as the inhibitory dose that reduces the growth of the cells exposed to the tested compounds by 50%. IC50 values and the SD of triplicate experiments were calculated by using GraphPad Prism software version 5.00 for Windows, with a non-linear regression curve fit (GraphPad Software, San Diego, CA, USA; www.graphpad.com, accessed on 12 July 2021). Doxorubicin (from a 2 mg/mL stock solution, Teva Pharmaceuticals) was used as a positive control.
(§3) The selectivity indexes (SI) were calculated as the ratio of the IC50 value in the non-tumour cells and the IC50 in the cancer cell lines. The compound’s activity towards cancer cells is considered as strongly selective if the selectivity index (SI) value is higher than 6, moderately selective if 3 < SI < 6, slightly selective if 1 < SI < 3, and non-selective if SI is lower than 1 [16].

[2] = tested on: HepG2 (hepatocellular carcinoma); experiment: Cytotoxicity on HepG2 cells; type: cell-based; conditions: Homo sapiens
Method: (§4) The activity of selenoesters was tested on several cancer cell lines, including HepG2 (hepatocellular carcinoma, CCL-23TM, ATCC); HeLa (cervical adenocarcinoma, CCL-2TM, ATCC); B16 (skin melanoma, CCL-6322TM, ATCC); and a non-cancerous cell line, HDF (human dermal fibroblasts, Sigma-Aldrich). HepG2, HeLa, B16, and HDF cell lines were cultivated in EMEM medium supplemented with 10% FBS, 2 mM L-glutamine, and 1% penicillin-streptomycin mixture. The HaCaT cell line was cultivated in DMEM medium supplemented with 10% FBS and 1% penicillin-streptomycin mixture. All of the cells were cultivated in a CO2 incubator (5% CO2, 37 °C). Twice per week, the cell lines were passaged according to a standardized protocol with a trypsin-EDTA solution.
as §3

[3] = tested on: HeLa (cervical adenocarcinoma); experiment: Cytotoxicity on HeLa cells; type: cell-based, human; conditions: ratio IC50 non-tumour cells / IC50 cancer cells
HaCaT cell line = experiment: Toxicity on HaCaT cells (IC10 used as dose); type: cell-based; conditions: Homo sapiens
Method: as §4, with “solution. […]” for “solution.”
Wound healing activity of selenoesters was evaluated as the ability of the cells to migrate and close the gap created on the monolayer of human keratinocytes (HaCaT cell line). The tested substances were applied in the highest possible non-toxic concentration (IC10, concentration inhibiting 10% of the population). In general, ketone-selenoesters were more toxic (except K4 and K1) than cyano-selenoesters (except N4); therefore, they were applied at lower doses (0.17–0.30 µM) when compared to cyanoselenoesters (0.36–0.64 µM). Compounds K1, K4, and N4 were applied at a concentration of 0.30, 0.46, and 0.20 µM, respectively. As could be seen in Table 8, all ketone-selenoesters stimulated wound healing more effectively in comparison to both untreated control (p < 0.0000005) and allantoin (p < 0.00005). […] Only samples N1, N2, N4, and N7 closed effectively the damaged wound in 24 h, with the gap closure around 70%.

[4] = Cytotoxicity (MTT) on normal MRC-5 fibroblasts; type: cell-based; conditions: human
Text: as §1, §2

[5] = tested on: HepG2 (hepatocellular carcinoma); experiment: Cytotoxicity on HepG2 cells; type: cell-based, human; conditions: ratio IC50 non-tumour cells / IC50 cancer cells
[6] = concentration inhibiting 10% of the population, highest non-toxic concentration, read-out: Dose IC10
[7] = 24 h, MTT, read-out: MRC-5 (IC50 µM) Mean

SMILES: CC(=O)C[Se]C(=O)c1cccs1 [K1, Se-(2-Oxopropyl) Thiophene-2-carboselenoate]
- IC50 ([1]; COLO 205, 24 h, MTT): 1.53 µM
- SI MRC-5/Colo 205 [1]: 1.46
- IC50 [2]: 2.3 µM
- SI MRC-5/HeLa [3]: 1.5
- IC10 (HaCaT cell line; [6]): 0.3 µM
- IC50 at 24 h [4]: 2.24 µM

SMILES: CC(=O)C[Se]C(=O)c1ccccc1F [K2, Se-(2-Oxopropyl) 2-Fluorobenzoselenoate]
- IC50 ([1]; COLO 205, 24 h, MTT): 3.35 µM
- IC50 [2]: 2.2 µM
- SI MRC-5/HeLa [3]: 1.0
- IC10 (HaCaT cell line; [6]): 0.2 µM
- IC50 at 24 h [4]: 2.53 µM
- SI MRC-5/HepG2 [5]: 1.1

SMILES: CC(=O)C[Se]C(=O)c1ccc(Br)cc1 [K3, Se-(2-Oxopropyl) 4-Bromobenzoselenoate]
- IC50 ([1]; COLO 205, 24 h): 2.28 µM
- SI MRC-5/Colo 205 [1]: 1.25
- IC50 [2]: 3.1 µM
- SI MRC-5/HeLa [3]: 1.1
- IC10 (HaCaT cell line; read-out: Dose IC10 (µM)): 0.24 µM
- IC50 at 24 h [4, 7]: 2.86 µM

SMILES: CC(=O)C[Se]C(=O)c1ccccc1C(F)(F)F [K4, Se-(2-Oxopropyl) 2-(Trifluoromethyl)benzoselenoate]
- IC50 ([1]; COLO 205, 24 h): 1.05 µM
- IC50 [2]: 4.3 µM
- SI MRC-5/HeLa [3]: 1.5
- IC10 (HaCaT cell line; read-out: Dose IC10 (µM)): 0.46 µM
- IC50 at 24 h [4, 7]: 3.63 µM

SMILES: CC(=O)C[Se]C(=O)c1cccc(C(F)(F)F)c1 [K5, Se-(2-Oxopropyl) 3-(Trifluoromethyl)benzoselenoate]
- IC50 ([1]; COLO 205, 24 h, MTT): 2.14 µM
- SI MRC-5/Colo 205 [1]: 1.45
- IC50 [2]: 2.4 µM
- SI MRC-5/HeLa [3]: 1.2
- IC10 (HaCaT cell line; [6]): 0.25 µM
- IC50 at 24 h [4]: 3.11 µM
- SI MRC-5/HepG2 [5]: 1.3

SMILES: CC(=O)C[Se]C(=O)c1ccc(F)c(Cl)c1 [K6, Se-(2-Oxopropyl) 3-Chloro-4-fluorobenzoselenoate]
- IC50 ([1]; COLO 205, 24 h, MTT): 2.1 µM
- SI MRC-5/Colo 205 [1]: 1.73
- IC50 [2]: 2.9 µM
- SI MRC-5/HeLa [3]: 1.6
- IC10 (HaCaT cell line; [6]): 0.22 µM
- IC50 at 24 h [4]: 3.62 µM

SMILES: CC(=O)C[Se]C(=O)c1ccc(C(C)(C)C)cc1 [K7, Se-(2-Oxopropyl) 4-(Tert-butyl)benzoselenoate]
- IC50 ([1]; COLO 205, 24 h): 2.69 µM
- SI MRC-5/Colo 205 [1]: 1.38
- IC50 [2]: 3.7 µM
- SI MRC-5/HeLa [3]: 1.4
- IC10 (HaCaT cell line; read-out: Dose IC10 (µM)): 0.24 µM
- IC50 at 24 h [4, 7]: 3.72 µM
- SI MRC-5/HepG2 [5]: 1.0

SMILES: CC(=O)C[Se]C(=O)c1cc(F)c(F)cc1F [K8, Se-(2-Oxopropyl) 2,4,5-Trifluorobenzoselenoate]
- IC50 ([1]; COLO 205, 24 h, MTT): 2.24 µM
- SI MRC-5/Colo 205 [1]: 1.12
- IC50 [2]: 4 µM
- SI MRC-5/HeLa [3]: 1.3
- IC10 (HaCaT cell line; [6]): 0.17 µM
- IC50 at 24 h [4]: 2.5 µM
- SI MRC-5/HepG2 [5]: 0.6

SMILES: N#CC[Se]C(=O)c1cccc(F)c1 [N2, Se-(Cyanomethyl) 3-Fluorobenzoselenoate]
- IC50 ([1]; COLO 205, 24 h, MTT): 2.96 µM
- SI MRC-5/Colo 205 [1]: >6 *
- IC50 [2]: 5.6 µM
- SI MRC-5/HeLa [3]: >6 *
- IC10 (HaCaT cell line; [6]): 0.36 µM
- IC50 at 24 h [4]: > 100 µM
- SI MRC-5/HepG2 [5]: >6 *

SMILES: N#CC[Se]C(=O)c1ccc(Br)cc1 [N3, Se-(Cyanomethyl) 4-Bromobenzoselenoate]
- IC50 ([1]; COLO 205, 24 h, MTT): 2.1 µM
- SI MRC-5/Colo 205 [1]: >6 *
- IC50 [2]: 9.6 µM
- SI MRC-5/HeLa [3]: >6 *
- IC10 (HaCaT cell line; [6]): 0.64 µM
- IC50 at 24 h [4]: > 100 µM
- SI MRC-5/HepG2 [5]: >6 *

SMILES: N#CC[Se]C(=O)c1ccccc1C(F)(F)F [N4, Se-(Cyanomethyl) 2-(Trifluoromethyl)benzoselenoate]
- IC50 ([1]; COLO 205, 24 h, MTT): 1.97 µM
- IC50 [2]: 5.2 µM
- SI MRC-5/HeLa [3]: >6 *
- IC10 (HaCaT cell line; [6]): 0.2 µM
- IC50 at 24 h [4]: > 100 µM
- SI MRC-5/HepG2 [5]: >6 *

SMILES: N#CC[Se]C(=O)c1cc(C(F)(F)F)cc(C(F)(F)F)c1 [N7, Se-(Cyanomethyl) 3,5-Bis(trifluoromethyl)benzoselenoate]
- IC50 ([1]; COLO 205, 24 h, MTT): 1.98 µM
- IC50 [2]: 11.8 µM
- SI MRC-5/HeLa [3]: >6 *
- IC10 (HaCaT cell line; [6]): 0.61 µM
- IC50 at 24 h [4]: > 100 µM
- SI MRC-5/HepG2 [5]: >6 *
